Laboratory results: ChEMBL document CHEMBL1201862, “PubChem BioAssay data set” (2004)
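Five compound concentrations were applied to cells in 96-well plates for 48 hours; endpoints were derived by simple linear interpolation of the resulting dose-response curve. GI50 = concentration required for 50% inhibition of growth.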 Activity calls are given as the source filed them. Cut-off read from the data, not from the text of the source: active = GI50 up to about 1.1 µM and inactive = higher.

Legend:
Test in all cases: growth of human tumour cells (NCI), 48 h
[1] = test system: SK-MEL-2
[2] = test system: HOP-62
[3] = test system: NCI/ADR-RES
[4] = test system: A498
[5] = test system: ACHN
[6] = test system: OVCAR-5
[7] = test system: OVCAR-4
[8] = test system: SF-539
[9] = test system: SF-295
[10] = test system: SK-MEL-28
[11] = test system: SNB-75
[12] = test system: MCF7
[13] = test system: HCT-15
[14] = test system: MOLT-4
[15] = test system: K562
[16] = test system: PC-3
[17] = test system: DU-145
[18] = test system: Hs-578T
[19] = test system: U-251
[20] = test system: HOP-92

Row | Structure (SMILES) | GI50 [1] | GI50 [2] | GI50 [3] | GI50 [4] | GI50 [5] | GI50 [6] | GI50 [7] | GI50 [8] | GI50 [9] | GI50 [10] | GI50 [11] | GI50 [12] | GI50 [13] [µM] | GI50 [14] | GI50 [15] | GI50 [16] | GI50 [17] | GI50 [18] | GI50 [19] | GI50 [20]
1 | Cc1nc2c(Br)cc(Br)cc2c(=O)n1-c1ccccc1N | 19.2 µM (inactive) | 70.5 µM (inactive) | 45.9 µM (inactive) | 36.9 µM (inactive) | 39.7 µM (inactive) | 28.8 µM (inactive) | > 100 µM (inactive) | 35.2 µM (inactive) | 53 µM (inactive) | 44.4 µM (inactive) | 22.9 µM (inactive) | 38.9 µM (inactive) | 35.8 | 21.9 µM (inactive) | 29.8 µM (inactive) | 26.8 µM (inactive) | 56.6 µM (inactive) | 25.9 µM (inactive) |  | 
2 | COC(=O)/C=C\C(C#N)(C#N)/N=C/c1sccc1C | 15.8 µM (inactive) | 14.7 µM (inactive) | 11.8 µM (inactive) | 14.8 µM (inactive) | 1.87 µM (inactive) | 5.26 µM (inactive) | 4.53 µM (inactive) |  | 18.2 µM (inactive) | 4.88 µM (inactive) | 14.8 µM (inactive) | 1.56 µM (inactive) | 1.96 | 1.2 µM (inactive) | 3.3 µM (inactive) | 7.6 µM (inactive) | 7.53 µM (inactive) | 7.78 µM (inactive) | 10 µM (inactive) | 1.91 µM (inactive)
3 | N#C/C(C(=S)Nc1ccccc1)=C(/N)N1CCCC1 | > 100 µM (inactive) | > 100 µM (inactive) | > 100 µM (inactive) | > 100 µM (inactive) | > 100 µM (inactive) | > 100 µM (inactive) | > 100 µM (inactive) | > 100 µM (inactive) | > 100 µM (inactive) | > 100 µM (inactive) |  | > 100 µM (inactive) | > 100 | > 100 µM (inactive) | > 100 µM (inactive) | > 100 µM (inactive) | > 100 µM (inactive) | > 100 µM (inactive) | > 100 µM (inactive) | 62.5 µM (inactive)
4 | O=c1[nH]c2[nH]c(-c3ccc(Br)cc3)cc2c2ccccc12 | > 100 µM (inactive) | 22.1 µM (inactive) | 50.1 µM (inactive) | > 100 µM (inactive) | 66.8 µM (inactive) | > 100 µM (inactive) | 24.7 µM (inactive) | > 100 µM (inactive) | 70 µM (inactive) | > 100 µM (inactive) | 19.4 µM (inactive) | > 100 µM (inactive) | > 100 | 12 µM (inactive) | 27.1 µM (inactive) | > 100 µM (inactive) | > 100 µM (inactive) | 15.1 µM (inactive) | 28.8 µM (inactive) | 
5 | CCCNC(=S)N/C=C1\C(=O)Nc2ccccc2C1=O | > 100 µM (inactive) | > 100 µM (inactive) | > 100 µM (inactive) | > 100 µM (inactive) | > 100 µM (inactive) | > 100 µM (inactive) | > 100 µM (inactive) | > 100 µM (inactive) | > 100 µM (inactive) |  | 83.2 µM (inactive) | > 100 µM (inactive) | > 100 | > 100 µM (inactive) | > 100 µM (inactive) | > 100 µM (inactive) | > 100 µM (inactive) | > 100 µM (inactive) | > 100 µM (inactive) | > 100 µM (inactive)
6 | CCOC(=O)C(C(=O)OCC)=C1SC(=N\c2ccccc2)/C(=N/c2ccccc2)N1c1ccccc1 | > 100 µM (inactive) | 34.2 µM (inactive) | > 100 µM (inactive) | > 100 µM (inactive) | 64 µM (inactive) | > 100 µM (inactive) |  | > 100 µM (inactive) | 27 µM (inactive) | > 100 µM (inactive) | > 100 µM (inactive) | 75.3 µM (inactive) | > 100 | 13.3 µM (inactive) | 4.48 µM (inactive) | 58.7 µM (inactive) | > 100 µM (inactive) | 90.8 µM (inactive) | > 100 µM (inactive) | 54 µM (inactive)
7 | CC(=O)N1N(c2ccc([N+](=O)[O-])cc2)C(=O)C1(C)C | 19.1 µM (inactive) | 19.3 µM (inactive) | 30.8 µM (inactive) | 37.9 µM (inactive) | 19.7 µM (inactive) | 23.3 µM (inactive) | 19.2 µM (inactive) | 20.9 µM (inactive) | 31.4 µM (inactive) | 17.9 µM (inactive) | 18.7 µM (inactive) | 23.6 µM (inactive) | 15.7 | 15.5 µM (inactive) | 17 µM (inactive) | 15.7 µM (inactive) | 35.6 µM (inactive) | 33.5 µM (inactive) | 21.7 µM (inactive) | 
